In ChEMBL document CHEMBL1201862, “PubChem BioAssay data set” (2004):
One block for each compound: values may come before it. Active and inactive are the calls of the source.

Columns and labels:
[1] = inhibitors of intracellular T. cruzi replication, confirmation, NIH3T3 host cells, beta-gal luminescence (AID 2044); type: functional, cell-based;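 also: intracellular parasites grown in NIH/3T3 mouse fibroblasts as host cells; luminescent beta-galactosidase reporter signal from transgenic T. cruzi replicating inside host cells; inhibitors lower the luminescence signal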
[2] = cytotoxicity toward NIH3T3 fibroblasts, dose response, counter-screen, cell-based, ATP luminescence, mouse fibroblasts (AID 2010); type: functional;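 also: cells exposed to compound for about 90 hours before reading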
[3] = cells
[4] = tested on: BJ; assay: cytotoxicity toward BJ-TERT fibroblasts, dose response, cell-based, RAS-independent, luminescence (AID 1933); type: functional; details: Homo sapiens
[5] = biological target: T1, SUMO-activating enzyme (Homo sapiens, UniProt Q9UBT2); assay: SUMOylation inhibitor hit validation, confirmation, SUMOylation inhibitor project, biochemical, AlphaScreen (AID 2018); type: functional
[6] = tested on: BJ; assay: cells; type: functional, cell-based; details: Homo sapiens
[7] = biological target: T1, SUMO-activating enzyme; assay: inhibitors of in vitro SUMOylation cascade, primary screen, biochemical, HTRF, uHTS (AID 2006); type: protein-complex assay
[8] = biological target: Galanin receptor type 2 (Homo sapiens, UniProt O43603); assay: Dose Response cell-based high-throughput screening assay to identify agonists of galanin receptor 2 (GALR2). [Related pubchem assays: 864 ]; type: functional
[9] = tested on: BJ; assay: cytotoxicity toward BJ-TERT-LT-ST fibroblasts, dose response, cell-based, RAS-independent, luminescence (AID 1935); type: functional; details: Homo sapiens;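 also: BJ fibroblasts immortalized with TERT plus LT and ST oncogenes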
[10] = cytotoxicity toward DRD oncogenic fibroblasts, dose response, cell-based, non-viral oncogenic, luminescence (AID 1934); type: functional; details: Homo sapiens
[11] = Counterscreen for IDE inhibitors: Luminescence-based cell-based high throughput dose response assay to identify compounds that are cytotoxic to HEK cells. [Related pubchem assays: 434962 (Primary screen (IDE inhibitors in singlicate)), 449730 (Counterscreen (Cytotoxicity in triplicate)), 435028 (Confirmation (IDE inhibitors in triplicate)) …; type: functional; details: HEK293
[12] = biological target: T2, Insulin-degrading enzyme (Homo sapiens, UniProt P14735); assay: Dose Response: Fluorescence polarization-based cell-based high throughput dose response assay for inhibitors of insulin-degrading enzyme (IDE). [Related pubchem assays: 434962 (Primary screen (IDE inhibitors in singlicate)), 449730 (Counterscreen (Cytotoxicity in triplicate)), 435028 (Confirmation (IDE inhibitors in triplicate)), 434984 (Summary …; type: functional
T2 sequence (P14735 whole entry): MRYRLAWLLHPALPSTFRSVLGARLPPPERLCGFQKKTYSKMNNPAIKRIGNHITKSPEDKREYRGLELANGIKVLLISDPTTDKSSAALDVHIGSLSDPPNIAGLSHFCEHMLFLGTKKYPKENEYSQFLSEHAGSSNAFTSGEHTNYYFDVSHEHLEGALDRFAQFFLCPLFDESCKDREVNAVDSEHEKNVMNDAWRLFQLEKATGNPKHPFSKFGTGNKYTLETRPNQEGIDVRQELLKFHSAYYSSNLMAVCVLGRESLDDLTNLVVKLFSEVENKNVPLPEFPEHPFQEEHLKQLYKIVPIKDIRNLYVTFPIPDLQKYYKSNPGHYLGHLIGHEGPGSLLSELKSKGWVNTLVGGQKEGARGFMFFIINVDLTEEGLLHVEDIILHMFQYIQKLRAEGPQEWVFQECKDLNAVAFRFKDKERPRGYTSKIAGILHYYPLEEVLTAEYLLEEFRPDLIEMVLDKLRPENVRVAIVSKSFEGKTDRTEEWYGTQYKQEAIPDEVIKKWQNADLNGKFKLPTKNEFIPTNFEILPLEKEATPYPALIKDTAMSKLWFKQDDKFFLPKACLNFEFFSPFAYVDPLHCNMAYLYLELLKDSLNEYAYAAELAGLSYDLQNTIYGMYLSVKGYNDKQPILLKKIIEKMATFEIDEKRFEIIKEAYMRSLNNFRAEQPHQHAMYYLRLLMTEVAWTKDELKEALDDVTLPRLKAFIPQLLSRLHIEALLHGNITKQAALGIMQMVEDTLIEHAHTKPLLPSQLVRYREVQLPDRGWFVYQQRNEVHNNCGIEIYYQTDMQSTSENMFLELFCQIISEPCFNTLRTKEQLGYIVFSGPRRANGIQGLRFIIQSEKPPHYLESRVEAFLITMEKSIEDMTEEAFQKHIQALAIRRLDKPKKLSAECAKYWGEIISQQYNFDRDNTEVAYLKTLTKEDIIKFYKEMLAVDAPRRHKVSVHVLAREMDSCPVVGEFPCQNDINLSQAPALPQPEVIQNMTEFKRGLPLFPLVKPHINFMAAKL

[13] = biological target: Dual specificity tyrosine-phosphorylation-regulated kinase 1A (Rattus norvegicus, UniProt Q63470); type: biochemical, Homo sapiens
[14] = biological target: Photoreceptor-specific nuclear receptor (Homo sapiens, UniProt Q9Y5X4); type: functional;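 also: potency for compounds that break the NR2E3 corepressor complex and count as activators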
[15] = biological target: Peroxisome proliferator-activated receptor gamma/Nuclear receptor corepressor 2 (Homo sapiens, UniProt P37231+Q9Y618); type: functional
[16] = tested on: Staphylococcus aureus; assay: Inhibitors of Bacterial Quorum Sensing Structure Activity Relationship (SAR) Analysis: Dose Response Assay. [Related pubchem assays: 700, 527 ]; type: functional, organism-based
[17] = biological target: Serine/threonine-protein phosphatase PP1-alpha catalytic subunit (Homo sapiens, UniProt P62136); assay: PP1 phosphatase inhibitors, dose response, biochemical, fluorescence (AID 2394)
[18] = biological target: Serine/threonine-protein phosphatase (Homo sapiens, UniProt Q9BPW0); assay: PP5 phosphatase inhibitors, dose response, biochemical, fluorescence (AID 2395)
[19] = biological target: Mothers against decapentaplegic homolog 3 (Homo sapiens, UniProt P84022); assay: Smad3 binding inhibitors, lysate ELISA, dose response, cell lysate, secondary confirmation, chemiluminescent ELISA, HEK293 lysate (AID 1058); type: functional
[20] = biological target: T3, Aspartyl aminopeptidase (Plasmodium falciparum 3D7, UniProt Q8I2J3)
T3 sequence (Q8I2J3 whole entry): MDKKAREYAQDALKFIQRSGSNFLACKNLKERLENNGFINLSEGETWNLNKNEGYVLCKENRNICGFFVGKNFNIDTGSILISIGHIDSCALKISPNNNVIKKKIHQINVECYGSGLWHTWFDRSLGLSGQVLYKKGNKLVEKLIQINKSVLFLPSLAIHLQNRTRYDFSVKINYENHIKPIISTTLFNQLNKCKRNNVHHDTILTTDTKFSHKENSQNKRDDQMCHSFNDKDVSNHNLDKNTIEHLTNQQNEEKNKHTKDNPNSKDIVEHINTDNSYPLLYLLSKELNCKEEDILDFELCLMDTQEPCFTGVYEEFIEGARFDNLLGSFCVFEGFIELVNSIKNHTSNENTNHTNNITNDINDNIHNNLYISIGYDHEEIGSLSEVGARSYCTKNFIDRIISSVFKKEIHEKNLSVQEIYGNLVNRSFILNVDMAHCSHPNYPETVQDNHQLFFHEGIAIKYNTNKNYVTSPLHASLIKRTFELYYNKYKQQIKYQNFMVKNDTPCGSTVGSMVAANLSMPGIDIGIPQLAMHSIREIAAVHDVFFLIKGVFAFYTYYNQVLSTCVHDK

[21] = biological target: Procathepsin L (Homo sapiens, UniProt P07711)
[22] = tested on: HEK293; assay: Fluorescence-based counterscreen for potentiators or agonists of NPY-Y2: cell-based high-throughput dose response assay to identify inhibitors of cyclic nucleotide gated ion channel (CNGC) activity. In this assay, the parental HEK293 cell line transfected with a cyclic-nucleotide gated ion channel (CNGC)-based cAMP sensor is used to measure inhibition of isoproterenol-induced CNGC activity by test compound.; type: functional; details: Homo sapiens;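 also: stimulus is 1 µM isoproterenol at EC100 plus PDE inhibitor Ro 20-1724 at 25 µM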
[23] = biological target: Neuropeptide Y receptor type 2 (Homo sapiens, UniProt P49146); assay: Fluorescence-based cell-based high-throughput dose response assay for agonists of NPY-Y2. [Related pubchem assays: 1703 (Screening assay (CNGC inhibitors).), 1359 (Screening assay (NPY-Y2 potentiators or agonists).), 1304 (Screening assay (NPY-Y1 potentiators or agonists).), 1710 (Screening assay (NPY-Y2 agonists).), 1791 (Summary AID.)]; type: functional
[24] = biological target: Neuropeptide Y receptor type 1 (Homo sapiens, UniProt P25929); assay: Fluorescence-based counterscreen for agonists of NPY-Y2: cell-based high-throughput dose response assay for agonists of NPY-Y1.; type: functional
[25] = tested on: Vero; assay: Vero cell cytotoxicity, cytotoxicity control for flavivirus capping enzyme inhibitors (AID 588742); type: functional; details: Chlorocebus sabaeus
[26] = biological target: T4, Bcl-2-related protein A1 (Mus musculus, UniProt Q07440); assay: Bfl-1 inhibitors blocking BH3 peptide binding, confirmation, biochemical, TR-FRET, mouse Bfl-1 (AID 621);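 also: TR-FRET binding of GST-Bfl-1 to FITC-labelled Bid peptide via terbium antibody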
T4 sequence (Q07440 whole entry): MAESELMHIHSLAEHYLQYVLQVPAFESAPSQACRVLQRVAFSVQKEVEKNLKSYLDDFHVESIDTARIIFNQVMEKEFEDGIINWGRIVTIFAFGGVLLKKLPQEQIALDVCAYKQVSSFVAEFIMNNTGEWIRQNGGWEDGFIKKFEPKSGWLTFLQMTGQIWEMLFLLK

[27] = biological target: T4, Bcl-2-related protein A1; assay: Bfl-1 binding inhibitors, SAR follow-up, biochemical, fluorescence polarization (AID 1070)

T1 sequence (Q9UBE0 whole entry): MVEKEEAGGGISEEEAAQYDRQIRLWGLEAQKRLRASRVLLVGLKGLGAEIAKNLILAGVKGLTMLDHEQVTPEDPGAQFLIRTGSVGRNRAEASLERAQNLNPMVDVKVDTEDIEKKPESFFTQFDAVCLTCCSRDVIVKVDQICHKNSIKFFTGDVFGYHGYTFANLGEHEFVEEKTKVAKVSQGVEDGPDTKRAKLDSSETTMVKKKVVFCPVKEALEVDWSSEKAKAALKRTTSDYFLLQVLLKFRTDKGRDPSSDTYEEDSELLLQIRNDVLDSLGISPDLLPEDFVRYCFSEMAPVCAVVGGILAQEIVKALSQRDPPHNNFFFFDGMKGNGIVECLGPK
T1 sequence (Q9UBT2 whole entry): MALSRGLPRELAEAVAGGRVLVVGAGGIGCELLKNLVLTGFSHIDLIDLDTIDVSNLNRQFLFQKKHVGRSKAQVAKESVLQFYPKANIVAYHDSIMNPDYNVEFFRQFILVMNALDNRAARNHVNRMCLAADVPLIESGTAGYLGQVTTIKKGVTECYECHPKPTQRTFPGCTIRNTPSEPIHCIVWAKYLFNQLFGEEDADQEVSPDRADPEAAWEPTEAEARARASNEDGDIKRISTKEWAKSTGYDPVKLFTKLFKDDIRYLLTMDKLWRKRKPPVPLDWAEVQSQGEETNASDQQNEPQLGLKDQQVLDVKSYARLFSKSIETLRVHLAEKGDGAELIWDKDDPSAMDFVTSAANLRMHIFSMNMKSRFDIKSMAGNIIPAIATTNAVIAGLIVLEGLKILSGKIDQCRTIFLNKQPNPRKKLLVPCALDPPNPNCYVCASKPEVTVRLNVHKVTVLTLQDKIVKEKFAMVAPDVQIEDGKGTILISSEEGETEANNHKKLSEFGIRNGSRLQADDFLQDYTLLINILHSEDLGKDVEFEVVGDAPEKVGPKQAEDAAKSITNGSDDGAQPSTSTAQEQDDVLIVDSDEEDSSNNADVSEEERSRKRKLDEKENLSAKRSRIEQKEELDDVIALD
Chain of Galanin receptor type 2 (O43603 whole entry): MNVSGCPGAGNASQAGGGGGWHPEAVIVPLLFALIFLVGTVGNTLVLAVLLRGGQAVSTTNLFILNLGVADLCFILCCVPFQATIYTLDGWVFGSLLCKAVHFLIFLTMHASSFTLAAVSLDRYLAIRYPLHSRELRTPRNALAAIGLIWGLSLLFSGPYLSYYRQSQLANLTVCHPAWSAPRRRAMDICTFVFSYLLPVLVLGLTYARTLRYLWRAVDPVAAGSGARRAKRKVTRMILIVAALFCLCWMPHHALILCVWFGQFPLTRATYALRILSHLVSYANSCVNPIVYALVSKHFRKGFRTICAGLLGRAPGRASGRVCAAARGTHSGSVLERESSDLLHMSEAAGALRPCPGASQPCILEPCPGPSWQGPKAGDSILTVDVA
Chain of Serine/threonine-protein phosphatase (Q9BPW0 whole entry): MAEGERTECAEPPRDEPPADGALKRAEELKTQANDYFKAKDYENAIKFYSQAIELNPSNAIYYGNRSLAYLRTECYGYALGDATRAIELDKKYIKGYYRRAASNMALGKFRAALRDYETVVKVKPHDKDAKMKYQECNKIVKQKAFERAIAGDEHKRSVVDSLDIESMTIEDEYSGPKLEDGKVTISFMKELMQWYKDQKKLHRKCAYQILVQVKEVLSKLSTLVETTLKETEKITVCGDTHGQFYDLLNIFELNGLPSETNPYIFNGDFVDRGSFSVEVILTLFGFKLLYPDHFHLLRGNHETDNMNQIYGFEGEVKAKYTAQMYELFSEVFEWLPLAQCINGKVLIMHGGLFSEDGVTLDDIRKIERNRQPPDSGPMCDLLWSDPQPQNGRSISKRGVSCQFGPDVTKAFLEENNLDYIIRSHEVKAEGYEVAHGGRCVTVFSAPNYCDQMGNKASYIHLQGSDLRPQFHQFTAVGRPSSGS
Chain of Mothers against decapentaplegic homolog 3 (P84022 whole entry): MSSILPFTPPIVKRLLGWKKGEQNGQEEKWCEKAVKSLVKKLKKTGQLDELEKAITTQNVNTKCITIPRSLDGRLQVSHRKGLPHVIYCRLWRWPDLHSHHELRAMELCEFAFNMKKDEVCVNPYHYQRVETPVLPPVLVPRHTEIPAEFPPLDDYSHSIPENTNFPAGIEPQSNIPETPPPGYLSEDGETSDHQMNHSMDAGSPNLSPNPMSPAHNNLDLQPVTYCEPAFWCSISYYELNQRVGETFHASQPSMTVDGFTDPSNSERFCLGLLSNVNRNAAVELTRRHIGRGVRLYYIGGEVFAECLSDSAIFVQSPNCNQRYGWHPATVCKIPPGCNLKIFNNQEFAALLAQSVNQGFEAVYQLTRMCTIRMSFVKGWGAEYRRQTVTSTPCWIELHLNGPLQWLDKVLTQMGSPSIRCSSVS
Chain of Photoreceptor-specific nuclear receptor (Q9Y5X4 whole entry): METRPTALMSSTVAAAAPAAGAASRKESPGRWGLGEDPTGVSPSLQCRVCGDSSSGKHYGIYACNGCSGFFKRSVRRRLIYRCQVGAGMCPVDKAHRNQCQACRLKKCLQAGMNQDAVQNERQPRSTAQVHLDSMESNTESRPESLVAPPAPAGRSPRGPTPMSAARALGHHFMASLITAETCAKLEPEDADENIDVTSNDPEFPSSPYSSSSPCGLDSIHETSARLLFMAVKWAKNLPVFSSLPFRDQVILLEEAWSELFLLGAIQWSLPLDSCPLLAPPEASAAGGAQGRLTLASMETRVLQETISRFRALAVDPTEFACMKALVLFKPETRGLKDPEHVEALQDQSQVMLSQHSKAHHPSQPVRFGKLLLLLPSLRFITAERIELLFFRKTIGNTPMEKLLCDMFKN
Chain of Procathepsin L (P07711 whole entry): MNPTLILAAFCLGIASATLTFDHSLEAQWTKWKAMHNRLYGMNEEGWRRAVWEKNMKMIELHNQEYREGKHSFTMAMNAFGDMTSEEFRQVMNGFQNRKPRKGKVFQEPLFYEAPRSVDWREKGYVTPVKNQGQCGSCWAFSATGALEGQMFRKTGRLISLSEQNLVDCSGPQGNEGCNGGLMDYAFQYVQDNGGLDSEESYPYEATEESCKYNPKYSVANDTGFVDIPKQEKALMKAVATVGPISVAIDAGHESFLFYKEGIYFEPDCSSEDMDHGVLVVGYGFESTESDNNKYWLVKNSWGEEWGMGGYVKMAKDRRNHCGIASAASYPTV
Chain of Serine/threonine-protein phosphatase PP1-alpha catalytic subunit (P62136 whole entry): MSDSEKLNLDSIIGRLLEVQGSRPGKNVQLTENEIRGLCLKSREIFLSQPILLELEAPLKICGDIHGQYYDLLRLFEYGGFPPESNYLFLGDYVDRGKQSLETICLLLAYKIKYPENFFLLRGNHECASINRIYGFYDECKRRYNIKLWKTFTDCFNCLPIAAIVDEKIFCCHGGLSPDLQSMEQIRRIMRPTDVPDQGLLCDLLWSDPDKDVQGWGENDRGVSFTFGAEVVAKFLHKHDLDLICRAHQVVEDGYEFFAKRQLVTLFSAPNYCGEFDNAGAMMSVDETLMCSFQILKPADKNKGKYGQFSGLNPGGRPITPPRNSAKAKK
Chain of Neuropeptide Y receptor type 1 (P25929 whole entry): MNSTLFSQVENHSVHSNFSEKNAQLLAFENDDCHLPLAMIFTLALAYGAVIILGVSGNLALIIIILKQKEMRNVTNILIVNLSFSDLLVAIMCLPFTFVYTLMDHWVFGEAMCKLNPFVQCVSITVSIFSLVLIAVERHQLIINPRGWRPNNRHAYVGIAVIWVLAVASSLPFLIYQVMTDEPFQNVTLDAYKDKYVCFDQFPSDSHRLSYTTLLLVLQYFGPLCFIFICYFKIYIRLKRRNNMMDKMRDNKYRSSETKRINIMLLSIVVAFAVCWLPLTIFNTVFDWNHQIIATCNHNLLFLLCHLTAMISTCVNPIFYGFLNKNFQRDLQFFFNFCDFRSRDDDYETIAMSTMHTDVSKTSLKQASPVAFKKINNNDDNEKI
Chain of Neuropeptide Y receptor type 2 (P49146 whole entry): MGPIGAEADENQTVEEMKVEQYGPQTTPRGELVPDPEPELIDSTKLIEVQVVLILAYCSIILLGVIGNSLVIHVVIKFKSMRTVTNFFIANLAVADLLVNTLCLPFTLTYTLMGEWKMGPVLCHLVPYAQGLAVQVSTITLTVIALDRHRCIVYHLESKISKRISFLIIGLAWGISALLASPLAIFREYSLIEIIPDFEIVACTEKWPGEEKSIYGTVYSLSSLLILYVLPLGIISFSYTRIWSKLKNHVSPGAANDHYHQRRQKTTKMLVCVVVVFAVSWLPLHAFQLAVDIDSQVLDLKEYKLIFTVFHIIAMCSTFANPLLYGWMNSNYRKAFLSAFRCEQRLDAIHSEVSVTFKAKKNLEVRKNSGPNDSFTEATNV

Structure (SMILES): CCN(CC(=O)NCc1cccs1)C(=O)c1ccc([N+](=O)[O-])o1
EC50 [1]: < 0.1 µM (active)
EC50 [2]: > 30 µM (not active)
EC50 [3]: 0.047 µM (active)

Structure (SMILES): Cc1ccc2nsnc2c1NC(=O)c1ccc(-c2cc(Cl)ccc2Cl)o1
EC50 [4]: 3.86 µM (inconclusive)
IC50 [5]: 18 µM (active)
EC50 [6]: 14.4 µM (inconclusive)
IC50 [7]: 4.64 µM (active)
EC50 [8]: > 55.7 µM (not active)
EC50 [9]: 6.11 µM (inconclusive)
EC50 [10]: 5.89 µM (active)

Structure (SMILES): COc1ccc2c(Cl)c(C(=O)N/N=C3\CCCC(=O)C3)sc2c1
IC50 [11]: 26.2 µM (not active)
IC50 [12]: > 55.9 µM (not active)
AC50 [13]: 1.98 µM (active)

Structure (SMILES): O=C(O)c1cccnc1Nc1cccc(SC(F)(F)F)c1
IC50 [16]: 0.964 µM (active)

Structure (SMILES): COc1cc([N+](=O)[O-])ccc1N=C(S)Nn1cnnc1
IC50 [20]: 0.854 µM (active)
IC50 [21]: > 59.6 µM (not active)

Structure (SMILES): O=S(=O)(c1cccc(NC(=S)N2CCN(c3cccc(Cl)c3)CC2)c1)C(F)F
EC50 [22]: > 35.4 µM (not active)
EC50 [23]: > 35.4 µM (not active)
EC50 [24]: > 35.4 µM (not active)
CC50 [25]: > 40 µM (active)

Now from value to compound:

IC50 [14]: > 39.8 µM (not active)
IC50 [15]: 2.33 µM (active)
Structure (SMILES): O=C(O)C1CCN(c2nc(-c3ccccc3)c3cc(Br)ccc3n2)CC1

IC50 [17]: > 67 µM (not active)
IC50 [18]: > 67 µM (not active)
Structure (SMILES): Cc1nnc(NC(=O)C2C3C=CC(O3)C2C(=O)O)s1 (configuration not stated)

IC50 [19]: > 40 µM (not active)
Structure (SMILES): COc1ccc(C(c2cc3c(cc2O)OCO3)N2CCCCC2)c(OC)c1 (configuration not stated)

IC50 [26]: > 100 µM (not active)
IC50 [27]: > 100 µM (not active)
Structure (SMILES): COc1ncccc1-c1nnn(-c2ccc(Cl)c(Cl)c2)n1
